According to US8778882B2, “Agent for strengthening calcium containing tissue and use thereof” (Hayashibara Co., Ltd., priority 2002, dated 2014):

Assays:
Mouse MC3T3-E1 cells = assay: Calcium deposition by alizarin red-S staining; format: cell-based; design: key: +: same strength of red color as a negative control (only medium containing 0.2% (v/v) ethanol); ++: half strength of the positive control; +++: same strength of red color as a positive control (indomethacin); conditions: MC3T3-E1, 20 mM each compound (so in the source), eight days, alizarin red-S red color judgement
Source text: Following Experiment 1 which investigates differentiating pre-osteoblastic cells into osteoblastic cells, some of organic compounds were investigated whether they actually enhance calcium deposition or not. Indomethacin (commercialized by Funakoshi, Co., Ltd., Tokyo, Japan) (positive control), kaempferol (commercialized by Funakoshi, Co., Ltd., Tokyo, Japan), hesperetin (commercialized by Funakoshi, Co., Ltd., Tokyo, Japan), gallic acid (commercialized by Nacalai Tesque, Kyoto, Japan), and coffeic acid (commercialized by Wako Pure Chemical Industries, Osaka, Japan) were selected as organic compounds. Mouse MC3T3-E1 cells were treated with 20 mM each above compound dissolved in 1 ml of α-MEM medium supplemented with 10% (v/v) fetal calf serum and containing 10 mM β-glycerophosphate. Since final ethanol concentration in the medium is 0.2% (v/v), α-MEM medium containing 0.2% (v/v) ethanol was prepared as a negative control. The cells were inoculated for eight days as changing the medium therewith to fresh medium with or without each sample per three days. The cells were applied to measure calcium deposition therein by usual alizarin red-S staining method. Briefly to the cells washed with 1 ml of Dulbecco phosphate buffer saline twice after removing the medium were added 1 ml of 50 (v/v) % ethanol aqueous solution and incubated for 10 minutes. After removing the 50 (v/v) % ethanol aqueous solution, the cells were incubated with 1 ml of distilled water for 10 minutes. After removing the water, the cells were applied with 1 ml of 1% (w/v) alizarin red-S solution, incubated for 10 minutes, and washed with 1 ml of distilled water for three times after removing alizarin red-S solution. Then, the calcium deposition amount was measured in a manner of judging red color on the plate bottom since deposited calcium was stained by the above treatment. The judgement criterion “+” means same strength of red color as a negative control (only medium containing 0.2% (v/v) ethanol), “+++” means same strength of red color as a positive control (indomethacin), and “++” means half strength of the positive control.

Rat Femur and Tibia = assay: Enhancing calcium deposition in rat femur and tibia; format: in vivo; conditions: rats fed sample in high sucrose feeding stuff for eight weeks
Protocol: The experiment was performed using six three-weeks-aged female Wister rats per one group. The rats were fed with high sucrose feeding stuff containing ingredients listed Table 11 (In the Table, each value means “weight %”.) and one part by weight of each test sample; hesperetin (commercialized by Funakoshi, Co., Ltd., Tokyo, Japan), quercetin (commercialized by Tokyo Kasei Kogyo, Co., Ltd., Tokyo, Japan), α-glycosyl hesperidin (product name “αG HESPERIDINE”, commercialized by Hayashibara Shoji Inc., Okayama, Japan), α-glycosyl rutin (product name “αG RUTIN P”, commercialized by Hayashibara Shoji Inc., Okayama, Japan), or ipriflavone (commercialized by Daito Corporation, Toyama, Japan) (positive control). As a negative control, rats fed with feedstuff containing one part by weight of sucrose replacing test sample were prepared. The rats were allowed to freely take water. The rats were killed after eight weeks, and then, their femurs and tibias were excised. Each femur or tibia dried at 100° C. for about six hours was measured by electric even balance for high precision analysis (product name “HA180M/12QM”, commercialized by A & D Co, Ltd., Tokyo, Japan), and then, each bone was placed into a crucible and burned in an incinerator at 950° C. for six hours. The cinerary resultant was resolved in hydrochloric solution and provided for measuring calcium amount by atomic absorption photometer. Calcium amount per one dried bone was calculated and compared each other.

COc1ccc([C@@H]2CC(=O)c3c(O)cc(O)cc3O2)cc1O [Hesperetin]
Calcium Deposition Amount (Mouse MC3T3-E1 cells): +++
Calcium Content Per One Dried Bone (Rat Femur and Tibia; Femur): 125.1 mg
Dried Bone Mass (Rat Femur and Tibia; Femur): 0.463 g
Calcium Content Per One Dried Bone (Rat Femur and Tibia; Tibia): 109.0 mg
Dried Bone Mass (Rat Femur and Tibia; Tibia): 0.357 g
